Test results published in US7368429B2, “Peptide specificity of anti-myelin basic protein and the administration of myelin basic protein peptides to multiple sclerosis patients” (The Governors of the University of Alberta, priority 1991, dated 2008).
Where no end group is shown, it is not given here.

How the values were obtained:
[1] = test system: anti-MBP purified from CSF of MS patients; assay: In vitro neutralization of purified anti-MBP (liquid phase assay, then solid phase radioimmunoassay); format: binding, human; conditions: for neutralization of purified anti-MBP: pooled anti-MBP from 10 MS patients, FIG. 2; for REACTIVITY WITH ANTI-MBP: purified anti-MBP, h-MBP 0-1000 ng, peptides 0-10,000 ng, 1.5 hours incubation
Excerpt: Purified MBP was coupled to CNBr-activated Sepharose 4B (Pharmacia™) according to the manufacturer's instructions. Purified CSF IgG containing increased anti-MBP levels from 35 patients with acute MS relapses was used to isolate anti-MBP by MBP-Sepharose affinity chromatography (Warren, K. G. and Catz, I., J Neurol Sci 103:90-96, 1991). Purified anti-MBP samples were compared with the initial IgG source by poly-acrylamide gel electrophoresis. When purified anti-MBP samples were absorbed to zero with MBP, the post-absorption supernatants contained no residual IgG indicating the purity of anti-MBP.
Constant amounts of anti-MBP (15 radioactivity binding units corresponding to 100 for scale expansion purposes=% 0) were incubated with increasing amounts of h-MBP (0-1000 ng) or individual peptides of MBP (0-10,000 ng) in a liquid phase assay and after 1.5 hours incubation, free anti-MBP levels were determined in all mixtures. Anti-MBP isolated from 7 individual MS patients or pooled anti-MBP from 10 different MS patients were used in neutralization experiments. […] Another mouse monoclonal antibody to epitope 45-50 was used as negative antibody control.
(§1) Anti-MBP levels were determined by a solid phase radioimmunoassay with human MBP (Warren, K. G. and Catz, I., Ann Neurol 209:20-25, 1986; Warren, K. G. and Catz, I., Ann Neurol 21:183-187, 1987; and Warren, K. G. and Catz, I., J Neurol Sci 91:143-151, 1989). Free anti-MBP levels were measured in all fractions from affinity chromatography and in all neutralization mixtures. All individual samples were run in quadruplicate using the same iodinated material in order to minimize between-assay variability.

[2] = test system: MAb to peptide MBP64-78; assay: Positive antibody control of neutralization assay; format: binding
Procedure: (§2) Constant amounts of anti-MBP (15 radioactivity binding units corresponding to 100 for scale expansion purposes=% 0) were incubated with increasing amounts of h-MBP (0-1000 ng) or individual peptides of MBP (0-10,000 ng) in a liquid phase assay and after 1.5 hours incubation, free anti-MBP levels were determined in all mixtures. Anti-MBP isolated from 7 individual MS patients or pooled anti-MBP from 10 different MS patients were used in neutralization experiments. […] One monoclonal antibody (MAb) to peptide MBP64-78 and a polyclonal rabbit antiserum to peptide MBP1-8 were used as positive antibody controls (Groome, N., Harland, J., and Dawkes, A., Neurochem Int 7:309-317, 1985; Barry, R., Payton, M., and Groome, N., Neurochem Int 2:291-300, 1991). Another mouse monoclonal antibody to epitope 45-50 was used as negative antibody control.
as §1

[3] = test system: polyclonal rabbit antiserum to peptide MBP1-8; assay: Positive antibody control of neutralization assay; format: binding
Procedure: as §2, §1

[4] = test system: mouse monoclonal antibody to epitope 45-50; assay: Negative antibody control of neutralization assay; format: binding
Procedure: as §2, §1

[5] = test system: F and B anti-MBP purified from MS brain tissue; assay: Competitive inhibition assay with MBP decapeptides (epitope localization); format: binding, human; conditions: percent inhibition = 100 - radioactivity units, FIG. 10
Procedure: Prior to being assayed all CSF and/or tissue samples were diluted to a final IgG concentration of 0.010 g/l. F anti-MBP was detected directly in CSF or tissue extract while B levels of antibody were determined following acid hydrolysis of immune complexes with glycine HCl buffer pH 2.2. Non-specific binding was performed for each sample in uncoated wells. For epitope localization, synthetic peptides were firstly reacted with purified antibody in a liquid phase competitive assay and then anti-MBP was determined by radioimmunoassay in all resulting supernatants. Results of the combined competitive binding assay and radioimmunoassay were expressed as percent inhibition of synthetic peptide defined as 100—radioactivity units. Samples were done in 10 replicates and counted for 10 minutes each in a LKB1275 Minigamma counter. A pool of tissue-purified anti-MBP was used at 5 pre-established dilutions as positive controls. Pooled CSF from patients with non-neurological diseases was used as negative controls. Within assay reproducibility was between 3 and 5% and between assay variation was less than 7%.
The peptide(s) producing maximum inhibition were considered to be most highly associated with the antibody binding site.

Substance	neutralization of purified anti-MBP [1]	REACTIVITY WITH ANTI-MBP [1]	inhibition of MAb to peptide MBP64-78 [2]	inhibition of antibody to peptide MBP1-8 [3]	reaction with MAb to MBP 45-50 [4]	neutralization of anti-MBP purified from individual patients ([1]; anti-MBP from 7 individual MS patients, FIG. 3)	percent inhibition of F and B anti-MBP [5]
ARTAHYGSLPQKSHG [MBP64-78]	partially neutralized	+	inhibited				
MBP1-8: synthetic peptide of human MBP sequence 1-8 with unnatural cysteine residue (ASQKRPSQC)		−		inhibited			
MBP: Native human myelin basic protein isolated from non-MS brain tissue, 18.5 KD (ASQKRPSQRHGSKYLATASTMDHARHGFLPRHRDTG)	completely neutralized	++			did not react	completely neutralized	100%
